# Data published in US9765054B2, “Histone deacetylase inhibitors and compositions and methods of use thereof” (CHDI Foundation, Inc., priority 2011, dated 2017).
# Experiments:
# [1] = test system: cellular histone deacetylase enzymatic activity in Jurkat E6-1 cells; assay: Inhibition of cellular HDAC activity, Boc-Lys(Tfa)-AMC substrate, in Jurkat E6-1 cells; assay type: cell-based; conditions: Homo sapiens, Class IIa selective substrate Boc-Lys(Tfa)-AMC
# Source text: The potency of Class IIa Histone Deacetylase (HDAC) inhibitors is quantified by measuring the cellular histone deacetylase enzymatic activity using the Class IIa selective substrate, Boc-Lys(Tfa)-AMC. After penetration in Jurkat E6-1 cells, the substrate is deacetylated to Boc-Lys-AMC. After cell lysis and cleavage by trypsin, the fluorophore AMC is released from the deacetylated substrate only. The fluoresence of the sample is directly related to the histone deacetylase activity in the sample.
# Jurkat E6.1 Cell Culture and Plating.
# Jurkat E6.1 cells are cultured according to standard cell culture protocols in Jurkat E6.1 Growth Media (RPMI without phenol red, 10% FBS, 10 mM HEPES, and 1 mM Sodium Pyruvate). Jurkat E6.1 cells are counted using a Coulter Counter and resuspended in Jurkat E6.1 growth media at a concentration of 75,000 cells/35 μl. 35 μl or 75,000 cells is seeded into Greiner microtitre assay plates. The plates are then incubated at 37° C. and 5% CO2 while other assay components are being prepared.
# Serially Dilute HDAC Inhibitor Compounds.
# Serial dilutions of the HDAC inhibitors and control reference compound (1-(5-(3-((4-(1,3,4-oxadiazol-2-yl)phenoxy)methyl)-1,2,4-oxadiazol-5-yl)thiophen-2-yl)-2,2,2-trifluoroethanone) are made by first resuspending the lyophilized compound to a final concentration of 10 mM in 100% DMSO. Stocks of 70 μl aliquots of the 10 mM compound in DMSO are prepared and stored at −20° C. From one stock aliquot of each compound to be tested and the reference compound, a 16-point serial dilution is prepared according to Table 7 using a 125 μl 16-channel Matrix multi-channel pipette.
# 2 μl (200×) of each diluted solution and each control (full activity: 100% DMSO alone or full inhibition 1 mM) is stamped into V-bottom polypropylene 384-well compound plates using either the Bravo, Janus, or […] 16-channel Matrix multi-channel pipette. Each well with the 200× compound solution is diluted 1:20 by the addition of 38 μl Jurkat assay buffer+DMSO (9.5% DMSO, RPMI without phenol red, 0.09% FBS, 9 mM Hepes, and 0.9 mM Sodium Pyruvate equilibrated to room temperature)
# Prepare 5× (500 μM) Boc-Lys(Tfa)-AMC Substrate.
# 5× (500 μM) substrate is prepared just prior to the addition to the assay. The 5× substrate is prepared by diluting a 100 mM Boc-Lys(Tfa)-AMC in DMSO solution 1:200 by adding it drop-wise to Jurkat assay medium (RPMI without phenol red, 0.1% FBS, 10 mM Hepes, and 1 mM Sodium Pyruvate equilibrated to 37° C.) while vortexing at slow speed to prevent precipitation.
# 10 ml of 3× lysis buffer is prepared with 8.8 ml of 3× stock lysis buffer (50 mM Tris-HCl, pH 8.0, 137 mM NaCl, 2.7 mM KCl, 1 mM MgCl2, 1% Nonidet P40 Substitute equilibrated to room temperature) and 1.2 ml of 3 mg/ml Trypsin equilibrated to room temperature.
# 5 μl of each solution of 1:20 diluted compound from above is transferred to the Greiner microtitre assay plates with 75,000 cells/well using the Bravo. Cells are then incubated for 2 hours at 37° C. and 5% CO2. The assay is then started by adding 10 μl of 5× (500 μM) substrate to the assay plate using either the Bravo or 16-channel Matrix multi-channel pipette. The cells are then incubated for 3 hours at 37° C. and 5% CO2. Next, 25 μl of 3× lysis buffer is added to each well using either the 125 μl 16 channel pipette or the Bravo. The assay plate is then incubated overnight (15-16 hours) at 37° C. and 5% CO2. The following day, the plates are shaken on an orbital shaker for 1 minute at 900 rpm. Finally the top read fluorescence (Excitation: 355 nm, Emission: 460 nm) is measured using PerkinElmer EnVision.
# [2] = target: human catalytic domain HDAC4 protein (Homo sapiens, UniProt P56524, A743G/DEL730-739/DEL742-742); assay: Inhibition of HDAC4 catalytic domain enzymatic activity, Boc-Lys(Tfa)-AMC substrate, fluorescence; conditions: Class IIa selective substrate Boc-Lys(Tfa)-AMC, read-out: Biochemical HDAC-4 IC50;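 note: trypsin releases AMC from deacetylated substrate, fluorescence tracks enzyme activity, 15 min reaction at 37 °C, 100% activity defined by DMSO-only control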
SMILES,IC50 [1] [nM],IC50 [2] [nM]
"Cc1cccc([C@H]2[C@H](C(=O)NO)[C@@H]2c2ccccc2)c1 (racemic) [Compound 18b, (1R*,2R*,3R*)—N-Hydroxy-2-phenyl-3-m-tolylcyclopropanecarboxamide]",2740,150
"CC(C)Oc1ccccc1[C@@H]1C(c2ccccc2)[C@H]1C(=O)NO (mixture of isomers) [Compound 11a, (1R,2R,3R*)—N-Hydroxy-2-(2-isopropoxyphenyl)-3-phenylcyclopropanecarboxamide]",50000,20600
"O=C(NO)[C@H]1[C@H](c2cc(C3CC3)nc(C3CC3)c2)[C@H]1c1ccccc1F [Compound 88, (1S,2R,3R)-2-(2,6-Dicyclopropylpyridin-4-yl)-3-(2-fluorophenyl)-N-hydroxycyclopropanecarboxamide]",1480,200
"Cc1ccccc1[C@H]1[C@H](C(=O)NO)[C@@H]1c1ccccc1 (racemic) [Compound 18a, (1R*,2R*,3R*)—N-Hydroxy-2-phenyl-3-o-tolylcyclopropanecarboxamide]",13200,1720
"CC(C)N1CCN(c2ccc([C@H]3[C@H](C(=O)NO)[C@@H]3c3ccccc3)cc2)CC1 (racemic) [Compound 56a, (1R*,2R*,3R*)—N-Hydroxy-2-(4-(4-isopropylpiperazin-1-yl)phenyl)-3-phenylcyclopropanecarboxamide]",760,90
"CC(C)N1CCN(c2cccc([C@H]3[C@H](C(=O)NO)[C@@H]3c3ccccc3)c2)CC1 (racemic) [Compound 56b, (1R*,2R*,3R*)—N-Hydroxy-2-(3-(4-isopropylpiperazin-1-yl)phenyl)-3-phenylcyclopropanecarboxamide]",5080,1430
"O=C(NO)[C@@H]1[C@H](c2ccc(F)cc2)[C@H]1c1ccnc(C2CC2)c1 [Compound 28d, (1R,2R,3R)-2-(2-Cyclopropylpyridin-4-yl)-3-(4-fluorophenyl)-N-hydroxycyclopropanecarboxamide]",790,120
"O=C(NO)[C@@H]1[C@H](c2ccccc2)[C@H]1c1ccc(-c2ccc3c(c2)CN(C2CC2)C3)cc1 (racemic) [Compound 52, (1R*,2R*,3R*)-2-(4-(2-cyclopropylisoindolin-5-yl)phenyl)-N-hydroxy-3-phenylcyclopropanecarboxamide]",1790,480
"O=C(NO)[C@@H]1[C@H](c2ccccc2)[C@H]1c1ccn2cc(C(F)(F)F)nc2c1 [Compound 109, (1R,2R,3R)—N-Hydroxy-2-phenyl-3-(2-(trifluoromethyl)imidazo[1,2-a]pyridin-7-yl)cyclopropanecarboxamide]",2500,230
"O=C(NO)[C@@H]1[C@H](c2ccccc2)[C@H]1c1cnn(-c2ccc(C(F)(F)F)cn2)c1 [Compound 92b, (1R,2R,3R)—N-Hydroxy-2-phenyl-3-(1-(5-(trifluoromethyl)pyridin-2-yl)-1H-pyrazol-4-yl)cyclopropanecarboxamide]",1170,180
"O=C(NO)[C@@H]1[C@H](c2ccccc2)[C@H]1c1ccccc1F (racemic) [Compound 11b, (1R*,2R*,3R*)-2-(2-Fluorophenyl)-N-hydroxy-3-phenylcyclopropanecarboxamide]",1830,320
"Cc1ccn(-c2ccc([C@H]3[C@H](C(=O)NO)[C@@H]3c3ccccc3)cc2)n1 [Compound 79, (1R,2R,3R)—N-Hydroxy-2-(4-(3-methyl-1H-pyrazol-1-yl)phenyl)-3-phenylcyclopropanecarboxamide]",650,90
"O=C(NO)[C@@H]1[C@H](c2ccccc2)[C@H]1c1cccc(N2CCCn3nccc32)c1 [Compound 56h, (1R,2R,3R)-2-(3-(6,7-Dihydropyrazolo[1,5-a]pyrimidin-4(5H)-yl)phenyl)-N-hydroxy-3-phenylcyclopropanecarboxamide]",770,170
"O=C(NO)[C@@H]1[C@H](c2ccccc2)[C@H]1c1ccc(NS(=O)(=O)C2CC2)cc1 (racemic) [Compound 22, (1R*,2R*,3R*)-2-(4-(cyclopropanesulfonamido)phenyl)-N-hydroxy-3-phenylcyclopropanecarboxamide]",1320,50
"O=C(NO)[C@@H]1[C@H](c2ccccc2)[C@H]1c1ccc2c(c1)OC(F)(F)O2 [Compound 28e, (1R,2R,3R)-2-(2,2-Difluorobenzo[d][1,3]dioxol-5-yl)-N-hydroxy-3-phenylcyclopropanecarboxamide]",2030,120
"O=C(NO)[C@@H]1[C@H](c2ccccc2)[C@H]1c1ccc(-c2cnc(-c3ccccc3)o2)cc1 (racemic) [Compound 48, (1R*,2R*,3R*)—N-Hydroxy-2-phenyl-3-(4-(2-phenyloxazol-5-yl)phenyl)cyclopropanecarboxamide]",1260,280
"O=C(NO)[C@@H]1[C@H](c2ccccc2)[C@H]1c1cccc(N2CCN3CCCC3C2)c1 (relative stereo) [Compound 56f, (1R*,2R*,3R*)-2-(3-(Hexahydropyrrolo[1,2-a]pyrazin-2(1H)-yl)phenyl)-N-hydroxy-3-phenylcyclopropanecarboxamide]",1850,630
"O=C(NO)[C@H]1[C@H](c2ccccc2)[C@H]1C1CCCCC1 (racemic) [Compound 5, (1R*,2R*,3R*)-2-Cyclohexyl-N-hydroxy-3-phenylcyclopropanecarboxamide]",36900,6220
"CC(C)N1CCN(c2ccc([C@H]3[C@H](C(=O)NO)[C@@H]3c3ccccc3F)cn2)CC1 [Compound 83, (1S,2R,3R)-2-(2-Fluorophenyl)-N-hydroxy-3-(6-(4-isopropylpiperazin-1-yl)pyridin-3-yl)cyclopropanecarboxamide]",750,120
"O=C(NO)[C@@H]1[C@H](c2ccccc2)[C@H]1c1ccc(-n2ccnc2)cc1 (racemic) [Compound 42, (1R*,2R*,3R*)-2-(4-(1H-imidazol-1-yl)phenyl)-N-hydroxy-3-phenylcyclopropanecarboxamide]",1630,200
"O=C(NO)[C@@H]1[C@H](c2ccccc2)[C@H]1c1ccc(-n2cccn2)cc1 (racemic) [Compound 65, (1R*,2R*,3R*)-2-(4-(1H-pyrazol-1-yl)phenyl)-N-hydroxy-3-phenylcyclopropanecarboxamide]",970,90
"O=C(NO)[C@H]1[C@H](c2cc(Cl)c3c(c2)OCCO3)[C@H]1c1ccccc1F [Compound 25f, (1S,2R,3R)-2-(8-Chloro-2,3-dihydrobenzo[b][1,4]dioxin-6-yl)-3-(2-fluorophenyl)-N-hydroxycyclopropanecarboxamide]",240,30
"CC(C)c1nc2ccc([C@H]3[C@H](C(=O)NO)[C@@H]3c3ccccc3)cc2o1 [Compound 39, (1R,2R,3R)—N-hydroxy-2-(2-isopropylbenzo[d]oxazol-6-yl)-3-phenylcyclopropanecarboxamide]",220,20
"O=C(NO)[C@@H]1[C@H](c2ccccc2)[C@H]1c1ccc(-c2ncc(C(F)(F)F)cn2)cc1 [Compound 50e, (1R,2R,3R)-2-(4-(5-Trifluoromethylpyrimidin-2-yl)phenyl)-N-hydroxy-3-phenylcyclopropanecarboxamide]",690,180
